The values below come from US11524968B2, “Heterocyclic compound as a protein kinase inhibitor” (HK inno.N Corporation, priority 2017, dated 2022).

By IC50 is commonly meant the concentration at which inhibition is half-maximal.

Where only a bound is given, the exact number is not on record here.

JAK1, sequence (P23458 whole entry): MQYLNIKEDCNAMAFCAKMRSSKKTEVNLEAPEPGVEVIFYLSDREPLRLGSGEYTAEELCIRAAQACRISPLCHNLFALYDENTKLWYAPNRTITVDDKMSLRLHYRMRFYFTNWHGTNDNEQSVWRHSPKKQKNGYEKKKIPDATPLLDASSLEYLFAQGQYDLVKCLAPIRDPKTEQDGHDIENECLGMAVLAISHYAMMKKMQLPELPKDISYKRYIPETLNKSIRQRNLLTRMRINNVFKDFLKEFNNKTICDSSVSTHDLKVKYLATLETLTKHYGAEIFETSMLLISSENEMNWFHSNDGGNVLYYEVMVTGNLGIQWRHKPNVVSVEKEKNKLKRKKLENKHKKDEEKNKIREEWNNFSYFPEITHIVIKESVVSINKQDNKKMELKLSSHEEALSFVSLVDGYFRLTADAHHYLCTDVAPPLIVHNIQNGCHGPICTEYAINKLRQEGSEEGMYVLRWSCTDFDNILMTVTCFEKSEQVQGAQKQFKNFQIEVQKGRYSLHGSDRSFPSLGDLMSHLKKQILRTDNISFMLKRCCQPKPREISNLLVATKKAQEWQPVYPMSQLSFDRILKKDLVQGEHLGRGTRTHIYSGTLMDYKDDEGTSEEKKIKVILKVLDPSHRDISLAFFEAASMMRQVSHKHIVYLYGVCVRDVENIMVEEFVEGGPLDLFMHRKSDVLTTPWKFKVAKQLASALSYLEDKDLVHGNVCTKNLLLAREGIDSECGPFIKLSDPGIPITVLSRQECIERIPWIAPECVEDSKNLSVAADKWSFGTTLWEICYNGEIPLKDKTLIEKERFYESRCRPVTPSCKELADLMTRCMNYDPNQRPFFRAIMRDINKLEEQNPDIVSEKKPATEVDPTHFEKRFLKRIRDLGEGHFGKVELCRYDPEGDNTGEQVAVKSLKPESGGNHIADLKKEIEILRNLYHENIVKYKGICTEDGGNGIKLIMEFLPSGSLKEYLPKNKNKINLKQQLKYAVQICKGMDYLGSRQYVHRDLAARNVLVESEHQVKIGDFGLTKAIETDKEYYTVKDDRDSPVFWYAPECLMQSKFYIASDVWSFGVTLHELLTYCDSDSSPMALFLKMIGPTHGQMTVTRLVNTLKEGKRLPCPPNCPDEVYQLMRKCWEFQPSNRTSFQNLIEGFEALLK

In this assay the target is JAK1 (Homo sapiens (Human), UniProt P23458). Briefly: Analysis of JAK1 activity inhibition ability (ADP-Glo Kinase Assay). It counts as biochemical. The note with it: JAK1 enzyme, ADP-Glo luminescence, ATP 250 uM, IRS-itide substrate, 30° C. 40 minutes; read-out: IC50. Put shortly:
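JAK1 enzyme, IRS-itide substrate (40 ng/mL) and 250 uM ATP, both as prepared in kinase buffer (Tris-HCl pH 7.5, MgCl2, BSA, DTT), reacted with compound 40 min at 30 °C. ADP formed was detected by ADP-Glo luminescence; IC50 is the concentration giving 50% inhibition versus control.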
(ADP-Glo turns the ADP formed in a reaction into a luminescent signal.)
Take `O=C(CCC(F)(F)F)NC1CC=C(c2cc(NC(=O)C3CC3)nc3[nH]ccc23)CC1` (stereo not drawn) [Example 248, N-(4-(4-(4,4,4-trifluorobutanamido)cyclohex-1-en-1-yl)-1H-pyrrolo[2,3-b]pyridin-6-yl)cyclopropanecarboxamide]: the half-inhibitory concentration (IC50) is over 200 nM.

With `CCS(=O)(=O)N1CC=C(c2cc(NC(=O)C3CC3)nc3[nH]ccc23)C(C)(C)C1` [Example 179, N-(4-(1-(ethylsulfonyl)-3,3-dimethyl-1,2,3,6-tetrahydropyridin-4-yl)-1H-pyrrolo[2,3-b]pyridin-6-yl)cyclopropanecarboxamide], the half-maximal inhibitory concentration (IC50) is over 200 nM.

`CC1CN(C(=O)CC#N)CC=C1c1cc(NC(=O)C2CC2)nc2[nH]ccc12` (stereo in doubt) [Example 305, (R)—N-(4-(1-(2-cyanoacetyl)-3-methyl-1,2,3,6-tetrahydropyridin-4-yl)-1H-pyrrolo[2,3-b]pyridin-6-yl)cyclopropanecarboxamide]: the IC50 was 20 to 200 nM.

`CC1CN(C(=O)Cc2cccs2)CC=C1c1cc(NC(=O)C2CC2)nc2[nH]ccc12` (stereo not drawn) [Example 345, N-(4-(3-methyl-1-(2-(thiophen-2-yl)acetyl)-1,2,3,6-tetrahydropyridin-4-yl)-1H-pyrrolo[2,3-b]pyridin-6-yl)cyclopropanecarboxamide]: the concentration for half-maximal inhibition (IC50) lay in the range of 20 to 200 nM.

As to `O=C(Nc1cc(-c2ccc(CN3CCS(=O)(=O)CC3)cc2)c2cc[nH]c2n1)C1CC1` [Example 584, N-(4-(4-((1,1-dioxidothiomorpholino)methyl)phenyl)-1H-pyrrolo[2,3-b]pyridin-6-yl)cyclopropanecarboxamide], the concentration for half-maximal inhibition (IC50) was under 20 nM.

On to `CCc1cc(NS(=O)(=O)CC2(C#N)CC2)ccc1-c1cc(NC(=O)C2CC2)nc2[nH]ccc12` [Example 109, N-(4-(4-(((1-cyanocyclopropyl)methyl)sulfonamido)-2-ethylphenyl)-1H-pyrrolo[2,3-b]pyridin-6-yl)cyclopropanecarboxamide], for which the IC50 is under 20 nM.

Turning to `C[C@H]1CC(Nc2ccc(-c3cc(NC(=O)C4CC4)nc4[nH]ccc34)cc2)CCN1C(=O)NCC(F)(F)F` (stereo partly drawn) [Example 504, (2S)-4-((4-(6-(cyclopropanecarboxamido)-1H-pyrrolo[2,3-b]pyridin-4-yl)phenyl)amino)-2-methyl-N-(2,2,2-trifluoroethyl)piperidine-1-carboxamide], the half-inhibitory concentration (IC50) was over 200 nM.

For `CC(C)CCS(=O)(=O)Nc1ccc(-c2cc(NC(=O)C3CC3)nc3[nH]ccc23)cc1` [Example 45, N-(4-(4-((3-methylbutyl)sulfonamido)phenyl)-1H-pyrrolo[2,3-b]pyridin-6-yl)cyclopropanecarboxamide], the IC50 was under 20 nM.

For `C[C@@H]1CN(C(=O)c2ccc(Cl)nc2)CC=C1c1cc(NC(=O)C2CC2)nc2[nH]ccc12` [Example 400, (S)—N-(4-(1-(6-chloronicotinoyl)-3-methyl-1,2,3,6-tetrahydropyridin-4-yl)-1H-pyrrolo[2,3-b]pyridin-6-yl)cyclopropanecarboxamide], the IC50 is under 20 nM.

Turning to `O=C(Nc1cc(C2=CCN(C(=O)c3cnon3)CC2)c2cc[nH]c2n1)C1CC1` [Example 286, N-(4-(1-(1,2,5-oxadiazole-3-carbonyl)-1,2,3,6-tetrahydropyridin-4-yl)-1H-pyrrolo[2,3-b]pyridin-6-yl)cyclopropanecarboxamide], the 50% inhibitory concentration (IC50) was in the range of 20 to 200 nM.

Regarding `CC1CN(C(=O)c2ccc3c(c2)OCCO3)CC=C1c1cc(NC(=O)C2CC2)nc2[nH]ccc12` (stereo not drawn) [Example 325, N-(4-(1-(2,3-dihydrobenzo[b][1,4]dioxine-6-carbonyl)-3-methyl-1,2,3,6-tetrahydropyridin-4-yl)-1H-pyrrolo[2,3-b]pyridin-6-yl)cyclopropanecarboxamide], the half-inhibitory concentration (IC50) fell in the range of 20 to 200 nM.

As to `O=C(Nc1ccc(F)cc1)Nc1ccc(-c2nc(NC(=O)C3CC3)nc3[nH]ccc23)cc1` [Example 441, N-(4-(4-(3-(4-fluorophenyl)ureido)phenyl)-7H-pyrrolo[2,3-d]pyrimidin-2-yl)cyclopropanecarboxamide], the half-maximal inhibitory concentration (IC50) was 20 to 200 nM.

In the case of `O=C(Nc1cc(-c2ccc(CC(=O)N3CCN(S(=O)(=O)NCC(F)(F)F)CC3)cc2)c2cc[nH]c2n1)C1CC1` [Example 566, (N-(4-(4-(2-oxo-2-(4-(N-(2,2,2-trifluoroethyl)sulfamoyl)piperazin-1-yl)ethyl)phenyl)-1H-pyrrolo[2,3-b]pyridin-6-yl)cyclopropanecarboxamide)], the IC50 is over 200 nM.

Turning to `O=C(Nc1cc(-c2ccc(NS(=O)(=O)C3CCS(=O)(=O)C3)cc2)c2cc[nH]c2n1)C1CC1` (stereo not drawn) [Example 10, N-(4-(4-((1,1-dioxidotetrahydrothiophene)-3-sulfonamido)phenyl)-1H-pyrrolo[2,3-b]pyridin-6-yl)cyclopropanecarboxamide], the IC50 is under 20 nM.

For the compound `CC1CN(C(=O)c2ccc(C(C)(C)C)[nH]c2=O)CC=C1c1cc(NC(=O)C2CC2)nc2[nH]ccc12` (stereo not drawn) [Example 321, N-(4-(1-(6-(tert-butyl)-2-oxo-1,2-dihydropyridine-3-carbonyl)-3-methyl-1,2,3,6-tetrahydropyridin-4-yl)-1H-pyrrolo[2,3-b]pyridin-6-yl)cyclopropanecarboxamide], the IC50 was over 200 nM.

In the case of `CCC1CN(C(=O)CCC#N)CC=C1c1cc(NC(=O)C2CC2)nc2[nH]ccc12` (stereo not drawn) [Example 295, N-(4-(1-(3-cyanopropanoyl)-3-ethyl-1,2,3,6-tetrahydropyridin-4-yl)-1H-pyrrolo[2,3-b]pyridin-6-yl)cyclopropanecarboxamide], the IC50 is under 20 nM.

With `CCS(=O)(=O)Nc1ccc(-c2cc(NC(=S)C3CC3)nc3[nH]ccc23)cc1` [Example 715, N-(4-(4-(ethylsulfonamido)phenyl)-1H-pyrrolo[2,3-b]pyridin-6-yl)cyclopropanecarbothioamide], the concentration for half-maximal inhibition (IC50) was 20 to 200 nM.

On to `O=C(Nc1cc(-c2ccc(NS(=O)(=O)c3ccc(-n4cnnn4)cc3)cc2)c2cc[nH]c2n1)C1CC1` [Example 39, N-(4-(4-((4-(1H-tetrazol-1-yl)phenyl)sulfonamido)phenyl)-1H-pyrrolo[2,3-b]pyridin-6-yl)cyclopropanecarboxamide], for which the 50% inhibitory concentration (IC50) lay within 20 to 200 nM.

Take `CC1CN(C(=O)c2cccc(CCN3C(=O)COCC3=O)c2)CC=C1c1cc(NC(=O)C2CC2)nc2[nH]ccc12` (stereo not drawn) [Example 315, N-(4-(1-(3-(2-(3,5-dioxomorpholino)ethyl)benzoyl)-3-methyl-1,2,3,6-tetrahydropyridin-4-yl)-1H-pyrrolo[2,3-b]pyridin-6-yl)cyclopropanecarboxamide]: the IC50 is over 200 nM.

For the compound `C[C@@H]1CN(C(=O)CC2(C#N)CCCCC2)CC=C1c1cc(NC(=O)C2CC2)nc2[nH]ccc12` [Example 406, (S)—N-(4-(1-(2-(1-cyanocyclohexyl)acetyl)-3-methyl-1,2,3,6-tetrahydropyridin-4-yl)-1H-pyrrolo[2,3-b]pyridin-6-yl)cyclopropanecarboxamide], the IC50 was under 20 nM.

For the compound `O=C(Nc1cc(-c2ccc(NC(=O)N3CCOCC3)cc2)c2cc[nH]c2n1)C1CC1` [Example 432, N-(4-(6-(cyclopropanecarboxamido)-1H-pyrrolo[2,3-b]pyridin-4-yl)phenyl)morpholine-4-carboxamide], the concentration for half-maximal inhibition (IC50) is 20 to 200 nM.

With `CN(c1ccc(-c2nc(NC(=O)C3CC3)nc3[nH]ccc23)cc1)S(=O)(=O)c1ccc(F)c(F)c1` [Example 193, N-(4-(4-((3,4-difluoro-N-methylphenyl)sulfonamido)phenyl)-7H-pyrrolo[2,3-d]pyrimidin-2-yl)cyclopropanecarboxamide], the half-maximal inhibitory concentration (IC50) was over 200 nM.

In the case of `C[C@@H]1CN(C(=O)CC#N)CC=C1c1cc(NC(=O)C2CC2)nc2[nH]ccc12` [Example 304, (S)—N-(4-(1-(2-cyanoacetyl)-3-methyl-1,2,3,6-tetrahydropyridin-4-yl)-1H-pyrrolo[2,3-b]pyridin-6-yl)cyclopropanecarboxamide], the IC50 is under 20 nM.

For `O=C(Nc1cc(-c2ccc(NS(=O)(=O)CCCF)cc2)c2cc[nH]c2n1)C1CC1` [Example 3, N-(4-(4-((3-fluoropropyl)sulfonamido)phenyl)-1H-pyrrolo[2,3-b]pyridin-6-yl)cyclopropanecarboxamide], the 50% inhibitory concentration (IC50) is under 20 nM.

With `O=C(Nc1cc(-c2ccc(CNC(=O)N3CCOCC3)cc2)c2cc[nH]c2n1)C1CC1` [Example 579, N-(4-(6-(cyclopropanecarboxamido)-1H-pyrrolo[2,3-b]pyridin-4-yl)benzyl)morpholine-4-carboxamide], the concentration for half-maximal inhibition (IC50) was over 200 nM.

As to `C[C@H]1CC(c2cc(NC(=O)C3CC3)nc3[nH]ccc23)=CCN1C(=O)CC#N` [Example 391, (S)—N-(4-(1-(2-cyanoacetyl)-2-methyl-1,2,3,6-tetrahydropyridin-4-yl)-1H-pyrrolo[2,3-b]pyridin-6-yl)cyclopropanecarboxamide], the half-inhibitory concentration (IC50) is 20 to 200 nM.

Consider `N#CCCC(=O)N1C=C(c2cc(NC(=O)C3CC3)nc3[nH]ccc23)CCC1` [Example 418, N-(4-(1-(3-cyanopropanoyl)-1,4,5,6-tetrahydropyridin-3-yl)-1H-pyrrolo[2,3-b]pyridin-6-yl)cyclopropanecarboxamide], for which the IC50 was over 200 nM.

For the compound `O=C(Nc1nc(-c2ccc(NS(=O)(=O)CCCC(F)(F)F)cc2)c2cc[nH]c2n1)C1CC1` [Example 184, N-(4-(4-((4,4,4-trifluorobutyl)sulfonamido)phenyl)-7H-pyrrolo[2,3-d]pyrimidin-2-yl)cyclopropanecarboxamide], the half-inhibitory concentration (IC50) was in the range of 20 to 200 nM.

In the case of `O=C(Nc1nc(-c2ccc(NCc3ccc(Cl)cc3)cc2)c2cc[nH]c2n1)C1CC1` [Example 475, N-(4-(4-((4-chlorobenzyl)amino)phenyl)-7H-pyrrolo[2,3-d]pyrimidin-2-yl)cyclopropanecarboxamide], the IC50 was under 20 nM.

Take `CC(C)(C)OC(=O)N[C@H]1CCN(c2cc(NC(=O)C3CC3)nc3[nH]ccc23)C1` [Example 697, tert-butyl (S)-(1-(6-(cyclopropanecarboxamido)-1H-pyrrolo[2,3-b]pyridin-4-yl)pyrrolidin-3-yl)carbamate]: the half-inhibitory concentration (IC50) is over 200 nM.
